Legend:
[1] = target: NAMPT (human, recombinant, C-terminally His-tagged) (Homo sapiens, UniProt P43490); experiment: Time-Resolved Fluorescence Resonance Energy Transfer (TR-FRET) Binding Assay of NAMPT; details: without substrates; 6.8 nM NAMPT, 200 nM probe, 3 hours equilibration
Procedure, shortened: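 In a displacement format, the nicotinamide-site tracer at 200 nM competed with test compound for 6.8 nM enzyme detected via 1 nM terbium anti-His antibody; incubation lasted 3 hours at room temperature in 50 mM HEPES pH 7.5, 100 mM NaCl. Normalized 520/495 nm emission ratios gave IC50 values.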

NAMPT = NAMPT (Homo sapiens, UniProt P43490); experiment: TR-FRET Binding Assay of NAMPT with PRPP; details: with 200 μM PRPP and 2.5 mM ATP; 2 nM NAMPT, 2 nM probe, 16 hours equilibration
NAMPT, sequence (P43490 whole entry): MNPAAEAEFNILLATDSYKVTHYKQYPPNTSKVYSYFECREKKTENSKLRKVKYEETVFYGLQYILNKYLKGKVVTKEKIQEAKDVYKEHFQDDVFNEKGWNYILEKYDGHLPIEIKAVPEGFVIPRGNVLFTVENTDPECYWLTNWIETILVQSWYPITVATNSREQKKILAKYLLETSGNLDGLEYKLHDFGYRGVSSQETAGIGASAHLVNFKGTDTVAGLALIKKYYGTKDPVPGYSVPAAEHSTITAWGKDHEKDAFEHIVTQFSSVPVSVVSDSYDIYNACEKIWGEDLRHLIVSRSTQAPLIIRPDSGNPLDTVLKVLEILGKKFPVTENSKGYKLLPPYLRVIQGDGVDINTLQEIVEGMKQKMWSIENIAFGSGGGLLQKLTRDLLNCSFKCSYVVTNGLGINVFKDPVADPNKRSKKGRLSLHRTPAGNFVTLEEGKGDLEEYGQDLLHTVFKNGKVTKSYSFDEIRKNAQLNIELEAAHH
Procedure, shortened: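 Substrate-containing variant: 200 μM PRPP plus 2.5 mM ATP are added to 2 nM NAMPT and 2 nM probe, with a 16-hour incubation ahead of TR-FRET reading.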

PC3 cells = experiment: NAMPT Cell Proliferation Assay; assay type: cell-based; details: Homo sapiens, PC-3, 120 h, 5 days incubation, cell viability by Cell Titer Glo
Procedure, shortened: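 Following overnight attachment in RPMI with 10% heat-inactivated FBS, PC3 cells at 500 per well receive compounds spanning 10 μM down to 1×10^−5 μM. Growth is assessed by luminescent viability read after 5 days.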

NAMPT (human, recombinant, C-terminally His-tagged), sequence (P43490 whole entry): as above

O=C(NC1(c2ccc(C(=O)NCc3ccn4ccnc4c3)s2)COC1)c1ccccc1 [Example 325, 5-[3-(benzoylamino)oxetan-3-yl]-N-(imidazo[1,2-a]pyridin-7-ylmethyl)thiophene-2-carboxamide]
IC50 [1]: 180 nM | IC50 (NAMPT): 0.278 nM | IC50 (PC3 cells): 32.9 nM

O=C(CC1CCOC1)NC1(c2ccc(C(=O)NCc3ccn4ccnc4c3)s2)COC1 (stereo not drawn) [Example 326, N-(imidazo[1,2-a]pyridin-7-ylmethyl)-5-{3-[(tetrahydrofuran-3-ylacetyl)amino]oxetan-3-yl}thiophene-2-carboxamide]
IC50 [1]: 2350 nM | IC50 (NAMPT): 1.3 nM | IC50 (PC3 cells): 457 nM

CCCCC(=O)NC1(c2ccc(C(=O)NCc3ccn4ccnc4c3)s2)COC1 [Example 327, N-(imidazo[1,2-a]pyridin-7-ylmethyl)-5-[3-(pentanoylamino)oxetan-3-yl]thiophene-2-carboxamide]
IC50 [1]: 1320 nM | IC50 (NAMPT): 0.558 nM | IC50 (PC3 cells): 638 nM

CC[C@H](C)C(=O)N1CC[C@H](Oc2ccc(NC(=O)NCc3ccn4ccnc4c3)cc2)C1 [Example 328, 1-(imidazo[1,2-a]pyridin-7-ylmethyl)-3-[4-({(3S)-1-[(2S)-2-methylbutanoyl]pyrrolidin-3-yl]oxy)phenyl}urea]
IC50 [1]: 68 nM | IC50 (NAMPT): 0.169 nM | IC50 (PC3 cells): 8.9 nM

O=C(NCc1ccn2ccnc2c1)Nc1ccc(O[C@@H]2CCN(C(=O)c3ccccc3)C2)cc1 [Example 329, 1-(4-{[(3R)-1-benzoylpyrrolidin-3-yl]oxy}phenyl)-3-(imidazo[1,2-a]pyridin-7-ylmethyl)urea]
IC50 [1]: 30.8 nM | IC50 (NAMPT): 0.169 nM | IC50 (PC3 cells): 12.4 nM

CC(C)C(=O)N1CC[C@@H](Oc2ccc(NC(=O)NCc3ccn4ccnc4c3)cc2)C1 [Example 330, 1-(imidazo[1,2-a]pyridin-7-ylmethyl)-3-(4-{[(3R)-1-(2-methylpropanoyl)pyrrolidin-3-yl]oxy}phenyl)urea]
IC50 [1]: 320 nM | IC50 (NAMPT): 0.432 nM | IC50 (PC3 cells): 22.9 nM

O=C(NCc1ccn2ccnc2c1)Nc1ccc(O[C@@H]2CCN(C(=O)C3CC3)C2)cc1 [Example 331, 1-(4-{[(3R)-1-(cyclopropylcarbonyl)pyrrolidin-3-yl]oxy}phenyl)-3-(imidazo[1,2-a]pyridin-7-ylmethyl)urea]
IC50 [1]: 383 nM | IC50 (NAMPT): 0.416 nM | IC50 (PC3 cells): 227 nM

O=C(NCc1ccn2ccnc2c1)Nc1ccc(O[C@@H]2CCN(C(=O)CC3CC3)C2)cc1 [Example 332, 1-(4-{[(3R)-1-(cyclopropylacetyl)pyrrolidin-3-yl]oxy}phenyl)-3-(imidazo[1,2-a]pyridin-7-ylmethyl)urea]
IC50 [1]: 180 nM | IC50 (NAMPT): 0.297 nM | IC50 (PC3 cells): 64.3 nM

O=C(NCc1ccn2ccnc2c1)Nc1ccc(O[C@@H]2CCN(C(=O)C3CCOCC3)C2)cc1 [Example 333, 1-(imidazo[1,2-a]pyridin-7-ylmethyl)-3-(4-{[(3R)-1-(tetrahydro-2H-pyran-4-ylcarbonyl)pyrrolidin-3-yl]oxy}phenyl)urea]
IC50 [1]: 583 nM | IC50 (NAMPT): 0.346 nM | IC50 (PC3 cells): 116 nM

CC(C)(O)C(=O)N1CC[C@@H](Oc2ccc(NC(=O)NCc3ccn4ccnc4c3)cc2)C1 [Example 334, 1-(4-{[(3R)-1-(2-hydroxy-2-methylpropanoyl)pyrrolidin-3-yl]oxy}phenyl)-3-(imidazo[1,2-a]pyridin-7-ylmethyl)urea]
IC50 [1]: 80.9 nM | IC50 (NAMPT): 0.345 nM | IC50 (PC3 cells): 21.9 nM

O=C(NCc1ccn2ccnc2c1)Nc1ccc(O[C@@H]2CCN(C(=O)[C@H]3CCCO3)C2)cc1 [Example 335, 1-(imidazo[1,2-a]pyridin-7-ylmethyl)-3-[4-({(3R)-1-[(2R)-tetrahydrofuran-2-ylcarbonyl]pyrrolidin-3-yl}oxy)phenyl]urea]
IC50 [1]: 632 nM | IC50 (NAMPT): 0.354 nM | IC50 (PC3 cells): 97.6 nM

O=C(NCc1ccn2ccnc2c1)Nc1ccc(O[C@@H]2CCN(C(=O)[C@@H]3CCCO3)C2)cc1 [Example 336, 1-(imidazo[1,2-a]pyridin-7-ylmethyl)-3-[4-({(3R)-1-[(2S)-tetrahydrofuran-2-ylcarbonyl]pyrrolidin-3-yl}oxy)phenyl]urea]
IC50 [1]: 334 nM | IC50 (NAMPT): 0.264 nM | IC50 (PC3 cells): 139 nM

O=C(NCc1ccn2ccnc2c1)Nc1ccc(O[C@@H]2CCN(C(=O)C3CCOC3)C2)cc1 (stereo partly drawn) [Example 337, 1-(imidazo[1,2-a]pyridin-7-ylmethyl)-3-(4-{[(3R)-1-(tetrahydrofuran-3-ylcarbonyl)pyrrolidin-3-yl]oxy}phenyl)urea]
IC50 [1]: 497 nM | IC50 (NAMPT): 0.205 nM | IC50 (PC3 cells): 533 nM

O=C(NCc1ccn2ccnc2c1)Nc1ccc(O[C@@H]2CCN(C(=O)CC3CCOCC3)C2)cc1 [Example 338, 1-(imidazo[1,2-a]pyridin-7-ylmethyl)-3-(4-{[(3R)-1-(tetrahydro-2H-pyran-4-ylacetyl)pyrrolidin-3-yl]oxy}phenyl)urea]
IC50 [1]: 609 nM | IC50 (NAMPT): 0.394 nM | IC50 (PC3 cells): 81 nM

O=C(NCc1ccn2ccnc2c1)c1ccc(O[C@H]2CCN(C(=O)[C@@H]3CCOC3)C2)cc1 [Example 339, N-(imidazo[1,2-a]pyridin-7-ylmethyl)-4-({(3S)-1-[(3R)-tetrahydrofuran-3-ylcarbonyl]pyrrolidin-3-yl}oxy)benzamide]
IC50 [1]: > 10000 nM | IC50 (NAMPT): 0.797 nM | IC50 (PC3 cells): 9180 nM

O=C(NCc1ccn2ccnc2c1)c1ccc(O[C@H]2CCN(C(=O)[C@H]3CCCO3)C2)cc1 [Example 340, N-(imidazo[1,2-a]pyridin-7-ylmethyl)-4-({(3S)-1-[(2R)-tetrahydrofuran-2-ylcarbonyl]pyrrolidin-3-yl}oxy)benzamide]
IC50 [1]: > 10000 nM | IC50 (NAMPT): 0.817 nM | IC50 (PC3 cells): > 10000 nM

O=C(NCc1ccn2ccnc2c1)c1ccc(O[C@H]2CCN(C(=O)[C@@H]3CCCO3)C2)cc1 [Example 341, N-(imidazo[1,2-a]pyridin-7-ylmethyl)-4-({(3S)-1-[(2S)-tetrahydrofuran-2-ylcarbonyl]pyrrolidin-3-yl}oxy)benzamide]
IC50 [1]: > 10000 nM | IC50 (NAMPT): 0.719 nM | IC50 (PC3 cells): 8300 nM

O=C(NCc1ccn2ccnc2c1)c1ccc(O[C@H]2CCN(C(=O)C3CCOCC3)C2)cc1 [Example 342, N-(imidazo[1,2-a]pyridin-7-ylmethyl)-4-{[(3S)-1-(tetrahydro-2H-pyran-4-ylcarbonyl)pyrrolidin-3-yl]oxy}benzamide]
IC50 [1]: > 10000 nM | IC50 (NAMPT): 0.454 nM | IC50 (PC3 cells): 6730 nM

O=C(NCc1ccn2ccnc2c1)c1ccc(O[C@H]2CCN(C(=O)CC3CCOCC3)C2)cc1 [Example 343, N-(imidazo[1,2-a]pyridin-7-ylmethyl)-4-{[(3S)-1-(tetrahydro-2H-pyran-4-ylacetyl)pyrrolidin-3-yl]oxy}benzamide]
IC50 [1]: > 10000 nM | IC50 (NAMPT): 0.456 nM | IC50 (PC3 cells): 6530 nM

O=C(NCc1ccn2ccnc2c1)c1ccc(-c2cnn(CC3CCCS(=O)(=O)C3)c2)s1 (stereo not drawn) [Example 344, 5-{1-[(1,1-dioxidotetrahydro-2H-thiopyran-3-yl)methyl]-1H-pyrazol-4-yl}-N-(imidazo[1,2-a]pyridin-7-ylmethyl)thiophene-2-carboxamide]
IC50 [1]: 36 nM | IC50 (NAMPT): 0.169 nM | IC50 (PC3 cells): 7.46 nM

Cn1cc(-c2ccc(C(=O)NCc3ccn4ccnc4c3)s2)cn1 [Example 345, N-(imidazo[1,2-a]pyridin-7-ylmethyl)-5-(1-methyl-1H-pyrazol-4-yl)thiophene-2-carboxamide]
IC50 [1]: 201 nM | IC50 (NAMPT): 0.27 nM | IC50 (PC3 cells): 281 nM

O=C(NCc1ccn2ccnc2c1)c1ccc(O[C@H]2CCN(C(=O)[C@H]3CCOC3)C2)cc1 [Example 346, N-(imidazo[1,2-a]pyridin-7-ylmethyl)-4-({(3S)-1-[(3S)-tetrahydrofuran-3-ylcarbonyl]pyrrolidin-3-yl}oxy)benzamide]
IC50 [1]: 3110 nM | IC50 (NAMPT): 0.548 nM | IC50 (PC3 cells): 7020 nM

O=C(NCc1ccn2ccnc2c1)c1ccc(O[C@H]2CCN(C(=O)CC3CC3)C2)cc1 [Example 347, 4-{[(3S)-1-(cyclopropylacetyl)pyrrolidin-3-yl]oxy}-N-(imidazo[1,2-a]pyridin-7-ylmethyl)benzamide]
IC50 [1]: 4730 nM | IC50 (NAMPT): 0.667 nM | IC50 (PC3 cells): 8080 nM

CC(C)(O)C(=O)N1CC[C@H](Oc2ccc(C(=O)NCc3ccn4ccnc4c3)cc2)C1 [Example 348, 4-{[(3S)-1-(2-hydroxy-2-methylpropanoyl)pyrrolidin-3-yl]oxy}-N-(imidazo[1,2-a]pyridin-7-ylmethyl)benzamide]
IC50 [1]: > 10000 nM | IC50 (NAMPT): 1.52 nM | IC50 (PC3 cells): > 10000 nM

COCC(C)C(=O)N1CC[C@H](Oc2ccc(C(=O)NCc3ccn4ccnc4c3)cc2)C1 (stereo partly drawn) [Example 349, N-(imidazo[1,2-a]pyridin-7-ylmethyl)-4-{[(3S)-1-(3-methoxy-2-methylpropanoyl)pyrrolidin-3-yl]oxy}benzamide]
IC50 [1]: 4110 nM | IC50 (NAMPT): 0.736 nM | IC50 (PC3 cells): 5510 nM

CCCC(=O)N1CC[C@H](Oc2ccc(C(=O)NCc3ccn4ccnc4c3)cc2)C1 [Example 350, 4-{[(3S)-1-butanoylpyrrolidin-3-yl]oxy}-N-(imidazo[1,2-a]pyridin-7-ylmethyl)benzamide]
IC50 [1]: > 10000 nM | IC50 (NAMPT): 0.795 nM | IC50 (PC3 cells): 8170 nM

From patent US9187472B2 (AbbVie Inc., priority 2012, dated 2015)
